Marks after values point to notes of the source that are not given here.

Data set [1] is described as follows: Parallel artificial membrane permeability assay (PAMPA). Type of data set: in vitro ADME. Conditions: pH 7.4, 25 °C, read-out: Peff. How it is done: The thermodynamic solubility of COTI-NMeCy, COTI-Nme2, COTI-NH2, and COTI-2 was measured for the saturated solutions in water at pH 7.4 (20 mM HEPES buffer) at 25.0 ± 0.1 °C. The concentrations of the compounds were determined by UV-vis spectrophotometry using stock solutions of the compounds with known concentrations dissolved in pure DMSO, and 50% and 1% (v/v) DMSO/buffered aqueous solution for the calibration. The parallel artificial membrane permeability assay (PAMPA) was applied for the ligands with a Corning Gentest pre-coated PAMPA Plate System. Peff values were calculated according to the equation reported by Yu et al..
Background: The PAMPA barrier holds no transporters, so it reflects passive diffusion.

The subject of data set [2] is SW480 cells. As to the kind of experiment: Detection of paraptotic vesicles (phase contrast microscopy). Type of data set: cell-based, human. Conditions: 24 h. Here is the method: SW480 and SW480/Coti cells were seeded at a density of 2 × 10^4 per well in 24-well plates and left to recover for 24 h. This was followed by drug treatment at the indicated concentration for 24 h. Images were captured with phase contrast using a Nikon eclipse Ti-e fluorescence microscope and a DS Fi1c camera. Cells containing vesicles were counted in ImageJ and plotted in GraphPad Prism as the percentage of all cells.

The subject of data set [3] is SW480/Coti cells. The experiment in a line: MTT viability assay with ABCB1/ABCC1 inhibitors verapamil and CSA. It counts as cell-based, human. Conditions: 1 µM CSA and 10 µM verapamil, 72 h. Here is the method: For the cytotoxicity, cell viability, and proliferation studies, the 3-(4,5-dimethylthiazol-2-yl)-2,5-diphenyltetrazolium bromide (MTT) assay was utilized. Cells were seeded in 96-well plates at a density of 2 × 10^4 cells/well, with the exception of SW480/Tria, which was used at a density of 3 × 10^4 cells/well. After 24 h of recovery, cells were treated with the indicated concentration of drugs. For the drug combination experiments, verapamil and cyclosporine A (CSA) were used as […] modulators, and tetrathiomolybdate (TTM) was used as a copper chelator. The TSCs were dissolved in DMSO followed by subsequent dilutions in the medium in order to maintain a final DMSO concentration of <1%. After 72 h, the treatment solution was removed and replaced with 100 µL of MTT solution (EZ4U, Biomedica, Vienna, Austria), which was diluted 1:10 in the growth medium. A TECAN Infinite 200 Pro plate reader was used to measure the absorbance of the solution after 2–3 h incubation at 5% CO2 in an incubator at 37 °C. The anticancer activity was determined with GraphPad Prism software and indicated as IC50 values (half maximum inhibitory concentration).

Data set [4] can be described thus: Cyclic voltammetry of iron(III)–ligand (1:2) systems. Type of data set: physicochemical. The settings on record: cL = 1 mM, pH 7.40, 25 °C, 90% (v/v) DMSO/H2O, 0.01 V/s scan rate. Here is the method:
Cyclic voltammograms for the Fe(III) and Cu(II) complexes were recorded in 90% (v/v) DMSO/water solution containing 1 mM ligand and 0.5 mM FeCl3 or 1 mM CuCl2 using a conventional three-electrode system under nitrogen atmosphere and a PC-Controlled Electrochemical Measurement System (EF 451). The ionic strength was 0.10 M, adjusted by TBAN. Samples were purged for 15 min with Ar before recording the cyclic voltammograms. Platinum electrodes were used as the working and auxiliary electrodes, and Ag/AgCl (3 M KCl) was applied as the reference electrode. The electrochemical potentials were converted into the normal hydrogen electrode (NHE) scale by adding 0.222 V. The instrument was calibrated with an aqueous solution of K3[Fe(CN)6] (E1/2 = +0.386 V vs. NHE). Redox potentials were obtained at different scan rates (5–25 mV/s) in the range of −0.8 to +0.1 V. The dependence of the peak current values of the square root of the scan rates is shown in Figure S5 for the iron and copper complexes of COTI-NMeCy.

Data set [5] has as its system SW480/Coti cells. On the set-up: method as in PMID 33190481. Conditions: 72 h, MTT; cited from earlier work.
Data set [6] has as its system SW480/Tria cells. On the set-up: method as in PMID 33190481. Conditions: 72 h, MTT; cited from earlier work.
In data set [7] the test system is GLC-4/adr cells (ABCC1-overexpressing). On the set-up: method as in PMID 33190481. The settings on record: cited from earlier work.

Turning to `CN(C)C(=S)NN=C1CCCc2cccnc21` (mixture of isomers) [COTI-NMe2, 2-(6,7-Dihydroquinolin-8(5H)-ylidene)-N^4,N^4-dimethylhydrazine-1-carbothioamide], in data set [1], the Papp is 16 ± 0.1 ×10⁻⁶ cm/s. For the same compound, the “cells presenting paraptotic features” value in data set [2] (0.1 µM) and in data set [2] (1 µM) was 100% throughout. The “impact of verapamil and CSA on activity” value in data set [3] was “no relevant impact”.

On to `S=C(N/N=C1\CCCc2cccnc21)N1CCN(c2ccccn2)CC1` [COTI-2, 4-(pyridine-2-yl)-N-([(8E)-5,6,7,8-tetrahydroquinolin-8-ylidene]amino)piperazine-1-carbothioamide], for which the “E’ vs. NHE, iron(III)–ligand (1:2) systems” value in data set [4] is on record as “+0.11 V”. Also, the half-maximal inhibitory concentration (IC50) (in general, the concentration that gives 50% inhibition) in data set [5] is 9510 ± 3110 nM; in data set [6] it was 410 ± 160 nM; in data set [7] (72 h, MTT), 480 ± 150 nM. Moreover, in data set [7] (IC50 of GLC-4/adr divided by IC50 of parental GLC-4), the “Relative Resistance GLC-4/adr” value is 17.3 *.

The record behind these values is publication PMC9497102, “Thiosemicarbazone Derivatives Developed to Overcome COTI-2 Resistance” (Cancers, 2022).
